Test results as given in PubChem BioAssay (NCI).
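Compound exposure: 48 hours, 5 concentrations, 96-well plates. TGI: concentration producing complete growth inhibition.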

How the values were obtained:
Assay in all cases: NCI-60 cell line screen, 48 h
[1] = test system: SF-295 CNS
[2] = test system: CCRF-CEM leukemia
[3] = test system: RPMI-8226 leukemia
[4] = test system: HOP-92 NSCLC
[5] = test system: U251 CNS
[6] = test system: SW-620 colon
[7] = test system: DMS 114 small cell lung
[8] = test system: SF-539 CNS
[9] = test system: SK-OV-3 ovarian
[10] = test system: MOLT-4 leukemia
[11] = test system: M14 melanoma
[12] = test system: NCI-H522 lung
[13] = test system: IGROV1 ovarian
[14] = test system: DLD-1 colon
[15] = test system: DMS 273 small cell lung
[16] = test system: EKVX NSCLC
[17] = test system: SR leukemia
[18] = test system: SNB-75 CNS
[19] = test system: K-562 leukemia
[20] = test system: HCT-116 colon
[21] = test system: SNB-78 CNS
[22] = test system: HT29 colon
[23] = test system: HOP-62 NSCLC
[24] = test system: A549 NSCLC
[25] = test system: ACHN renal
[26] = test system: SN12C renal
[27] = test system: SK-MEL-5 melanoma
[28] = test system: A498 renal
[29] = test system: HCT-15 colon
[30] = test system: HL-60(TB) leukemia
[31] = test system: COLO 205 colon
[32] = test system: KM20L2 colon
[33] = test system: TK-10 renal
[34] = test system: SF-268 CNS
[35] = test system: OVCAR-3 ovarian
[36] = test system: M19-MEL melanoma
[37] = test system: CAKI-1 renal
[38] = test system: NCI-H226 lung
[39] = test system: SK-MEL-2 melanoma
[40] = test system: OVCAR-5 ovarian
[41] = test system: UO-31 renal
[42] = test system: UACC-62 melanoma
[43] = test system: HCC-2998 colon
[44] = test system: SK-MEL-28 melanoma
[45] = test system: UACC-257 melanoma
[46] = test system: NCI-H23 lung
[47] = test system: OVCAR-4 ovarian
[48] = test system: HOP-18 NSCLC
[49] = test system: LXFL 529 NSCLC
[50] = test system: OVCAR-8 ovarian
[51] = test system: MALME-3M melanoma
[52] = test system: KM12 colon

Work on `NC(=O)OCc1c(O)c2c(c(O)c1COC(N)=O)C(=O)C=CC2=O` yielded a TGI [1] of over 100 µM, a TGI [2] of over 100 µM and a TGI [3] of over 100 µM. The TGI [4] was over 100 µM, the TGI [5] was over 100 µM and the TGI [6] was over 100 µM. The TGI [7] was over 100 µM, the TGI [8] was over 100 µM and the TGI [9] was over 100 µM. It also gave a TGI [10] of over 100 µM, a TGI [11] of over 100 µM and a TGI [12] of over 100 µM. It also gave a TGI [13] of over 100 µM, a TGI [14] of over 100 µM and a TGI [15] of over 100 µM. The TGI [16] was over 100 µM, the TGI [17] was over 100 µM and the TGI [18] was over 100 µM. The TGI [19] was over 100 µM, the TGI [20] was over 100 µM and the TGI [21] was over 100 µM. For the same compound, the TGI [22] was over 100 µM, the TGI [23] was over 100 µM and the TGI [24] was over 100 µM. It also gave a TGI [25] of over 100 µM, a TGI [26] of over 100 µM and a TGI [27] of over 100 µM. The TGI [28] was over 100 µM, the TGI [29] was over 100 µM and the TGI [30] was over 100 µM. It also gave a TGI [31] of over 100 µM, a TGI [32] of over 100 µM and a TGI [33] of over 100 µM. The TGI [34] was over 100 µM, the TGI [35] was over 100 µM and the TGI [36] was 11.8 µM. It also gave a TGI [37] of over 100 µM, a TGI [38] of over 100 µM and a TGI [39] of over 100 µM. It also gave a TGI [40] of over 100 µM, a TGI [41] of over 100 µM and a TGI [42] of over 100 µM. For the same compound, the TGI [43] was over 100 µM, the TGI [44] was over 100 µM and the TGI [45] was over 100 µM. The TGI [46] was over 100 µM, the TGI [47] was over 100 µM and the TGI [48] was over 100 µM. It also gave a TGI [49] of over 100 µM, a TGI [50] of over 100 µM and a TGI [51] of over 100 µM. For the same compound, the TGI [52] was over 100 µM.
